Measured values taken from US5326882A, “Chemiluminescent 3-(substituted Adamant-2'-Ylidene) 1,2-dioxetanes” (Tropix, Inc., priority 1992, dated 1994).

Legend:
alkaline phosphatase [1] = target: T1, alkaline phosphatase (Bos taurus, UniProt P19111); assay: Half-time to plateau at low alkaline phosphatase concentration (Example XLI); type: biochemical; conditions: 0.4 mM dioxetane at pH 10.0; 31.5° C.; 2.53 × 10^-13 M alkaline phosphatase
alkaline phosphatase [2] = target: T1, alkaline phosphatase; assay: Detection limits for alkaline phosphatase, Berthold LB952T (Example XXII); type: biochemical; conditions: twice background
Protocol: (§1) The detection means for alkaline phosphatase with different chemiluminescent 1,2-dioxetane substrates were determined as follows: Duplicates of serial dilutions (1 to 3) of alkaline phosphates were incubated at room temperature with 0.4 mM dioxetane in 0.1 M diethanolamine, 1 mM MgCl2, pH 10.0, containing 1 mg/ml of either of the polymeric enhancers Enhancer 1 or Enhancer 2, in […].
(§2) Following either a 5 or a 20 minute incubation with a substrate, the chemiluminescence intensity was measured as a 5 second integrated Relative Light Units (RLU) and plotted as in FIG. 10. […] The alkaline phosphatase concentrations at twice background were used as the detection limits in Table 5.

alkaline phosphatase [3] = target: T1, alkaline phosphatase; assay: Chemiluminescent signal-to-noise levels with enhancers (Example XXIV); type: biochemical
Protocol: The chemiluminescent signal to noise levels were obtained with 2.83×10^-13 M alkaline phosphatase and various R-substituted adamantyl 1,2-dioxetane phosphates in the presence of several enhancers. All measurements were performed in a Berthold LB952T luminometer at room temperature. First, the background chemiluminescence levels (signal in the absence of the enzyme) of each sample (in triplicate) were measured. Each sample consisted of 0.2 μmoles of dioxetane in 0.45 ml of 0.1 M diethanolamine, 1 mM MgCl2, pH 10.0, without or with 1 mg/ml of the indicated enhancer. Tubes were inserted into the luminometer and the luminescence intensity was measured. Next, the tubes were removed from the luminometer and alkaline phosphatase (50 μl containing 1.415×10^-16 moles) was added to each tube, and the luminescence intensity was measured at 5 and 20 minutes after substrate addition. The final concentration of dioxetane in each tube was 0.4 mM.
All enhancers used at 1 mg/ml in 0.1 M DEA, pH 10. Alkaline phosphatase concentration=2.83×10^-13 M. Measurements performed in a Berthold LB952T Luminometer.

[4] = target: T2, alkaline phosphatase-labeled DNA probe (Bos taurus, UniProt P19111); assay: Alkaline phosphatase-labeled DNA probe detection in membrane with and without BDMQ blocking step (Example XV); conditions: for Detection limit (in picograms DNA) 5. min. exp.: five minute exposure 40 minutes after dioxetane addition; for Detection limit (in picograms DNA) 1 min. exp.: one minute exposure 77 minutes after dioxetane addition
T2 construct: purchased Tropix, Inc
Protocol: pBr 322 plasmid (4700 bp) was subjected to a nick translation process using a Trans-Light kit (Tropix, Inc., Bedford, Mass.) to generate a mixture of biotinylated single stranded polynucleotides of 200-2000 bps in length.
This mixture was dotted onto a dry BIODYNE A membrane as five parallel columns of dots of the following concentrations:
The membrane was subjected to ultraviolet irradiation (UVP Mineral Light; UVP, San Gabriel, Calif.) for 3 minutes to fix the DNA to the surface of the membrane, then air dried. Next, the membrane was blocked in 0.2% casein/0.1% Tween 20 detergent in PBS for 1 hour, following which 1/5000 diluted avidin-alkaline phosphatase conjugate (Tropix, Inc.) in 0.2% casein in PBS was added. The membrane was then incubated for 30 minutes, washed three times (for 5 minutes each time) in 0.2% casein/0.1% Tween 20 detergent in PBS and washed once for five minutes in aqueous 0.1M diethanolamine containing 1 mm magnesium chloride and 0.02% sodium azide, pH 10.0 (substrate buffer).
Next, the five columns of rows of dots 1-5 were individually cut from the membrane ("strips 1-5"), as were the five columns of rows of dots 6-10 ("strips 6-10"). Strips 1-5 were washed with substrate buffer for 30 minutes. Strips 6-10 were blocked in 0.1% BDMQ in substrate buffer for 30 minutes. Both sets of strips were then incubated for 5 minutes in substrate buffer, then individually incubated for five minutes in aqueous solutions (0.25 mM) of 1,2-dioxetanes as indicated below:
All strips were then placed in camera luminometers and exposed on Polaroid Type 612 instant black and white film.

alkaline phosphatase [5] = target: T1, alkaline phosphatase; assay: Alkaline phosphatase detection limits, LabSystems Luminoskan (Example XXV); type: biochemical
Protocol: as §1, §2
The luminometer used in this example was LabSystems Luminoskan microtiter plate reader.

alkaline phosphatase [6] = target: T1, alkaline phosphatase; assay: Alkaline phosphatase detection limits, Wilj microtiter plate luminometer (Example XXVI); type: biochemical; conditions: 23 MINUTE INCUBATION
[7] = target: T3, alkaline phosphatase (calf intestine; Biozyme) (Bos taurus, UniProt P19111); assay: Total dephosphorylation, chemiluminescence decay (Example XIII); type: biochemical; conditions: 30° C., carbonate/bicarbonate buffer
T3 construct: purchased Biozyme; host or cells: calf intestine
Protocol: A comparison of the total luminescence emission from AMPPD and from the corresponding 1,2-dioxetanes whose adamant-2'-ylidene groups are monosubstituted with hydroxy (A and B isomers), chloro and bromo groups was made by carrying out total dephosphorylation experiments on each of these compounds.
An aqueous solution of the 1,2-dioxetane (4.0 mm) in 0.05M sodium carbonate/sodium bicarbonate containing 1 mM magnesium chloride was prepared and then equilibrated at 30° C. Ten μl of a 7.64×10M aqueous solution of alkaline phosphatase (calf intestine; Biozyme) was then added, and the chemiluminescence from the resulting solution was recorded using a Turner Model 20E luminometer (Turner Instruments; Sunnyvale, Calif.).
The rates of chemiluminescence decay for each of the five compounds in question, expressed in relative light units (RLU's) per minute, are given in the following table.

[8] = enhancer NONE, 5 min, alkaline phosphatase 2.83×10^-13 M

T2 sequence (P19111 20-506 limits assumed): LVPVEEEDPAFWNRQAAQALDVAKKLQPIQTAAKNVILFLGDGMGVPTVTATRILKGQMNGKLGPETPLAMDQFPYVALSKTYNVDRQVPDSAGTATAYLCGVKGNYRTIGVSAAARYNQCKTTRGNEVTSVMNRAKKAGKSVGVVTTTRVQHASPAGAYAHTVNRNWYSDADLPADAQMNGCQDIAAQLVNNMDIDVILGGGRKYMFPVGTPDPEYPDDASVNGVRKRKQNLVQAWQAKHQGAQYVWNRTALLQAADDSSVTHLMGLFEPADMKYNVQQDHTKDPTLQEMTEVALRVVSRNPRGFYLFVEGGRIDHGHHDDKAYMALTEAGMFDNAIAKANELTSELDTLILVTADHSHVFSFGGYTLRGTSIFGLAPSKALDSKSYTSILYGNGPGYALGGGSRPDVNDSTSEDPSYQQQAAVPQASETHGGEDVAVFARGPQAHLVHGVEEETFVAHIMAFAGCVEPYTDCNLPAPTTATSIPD
T2 sequence (P02701 25-152 partner): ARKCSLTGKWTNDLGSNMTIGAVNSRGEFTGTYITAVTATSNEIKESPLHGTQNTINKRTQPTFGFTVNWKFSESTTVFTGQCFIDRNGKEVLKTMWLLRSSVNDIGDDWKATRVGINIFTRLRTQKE
T3 sequence (P19111 20-506 limits assumed): as the sequence (P19111 20-506 limits assumed) above
T1 sequence (P19111 20-506 limits assumed): as above

With `COC1(c2cccc(OP(=O)(O)O)c2)OOC12C1CC3CC2CC(Br)(C3)C1` (centres unmarked) [BrSPD] the “HALF-TIME TO PLATEAU (min.) AL LOW ALK PHOS CONCENTRATION” value (“HALF-TIME TO PLATEAU” below) (alkaline phosphatase [1]) was 0.70 min.
For `COC1(c2cccc(OP(=O)(O)O)c2)OOC12C1CC3CC2CC(I)(C3)C1` (single isomer, unassigned) [ISPD-A], the “HALF-TIME TO PLATEAU” value (alkaline phosphatase [1]) was 0.64 min.
`COC1(c2cccc(OP(=O)(O)O)c2)OOC12C1CC3CC2CC(OC(C)C)(C3)C1` (single isomer, unassigned) [i-PrO-AMPPD-A] was tested, and the “HALF-TIME TO PLATEAU” value (alkaline phosphatase [1]) was 0.93 min.
For `COC1(c2cccc(OP(=O)(O)O)c2)OOC12C1CC3CC2CC(Cl)(C3)C1` (centres unmarked) [CSPD], the “HALF-TIME TO PLATEAU” value (alkaline phosphatase [1]) was 0.71 min.
`COC1(c2cccc(OP(=O)(O)O)c2)OOC12C1CC3CC2CC(I)(C3)C1` (single isomer, unassigned) [ISPD-B] was tested, and the “HALF-TIME TO PLATEAU” value (alkaline phosphatase [1]) was 0.70 min.
For `CCCCOC12CC3CC(C1)C1(OOC1(OC)c1cccc(OP(=O)(O)O)c1)C(C3)C2` (centres unmarked) [n-BuO-AMPPD], the “HALF-TIME TO PLATEAU” value (alkaline phosphatase [1]) was 0.71 min.
In the case of `COC1(c2cccc(OP(=O)(O)O)c2)OOC12C1CC3CC2CC(OC(C)C)(C3)C1` (single isomer, unassigned) [i-PrO-AMPPD-B], the “HALF-TIME TO PLATEAU” value (alkaline phosphatase [1]) is reported as 0.68 min.
In the case of `COC1(c2cccc(OP(=O)(O)O)c2)OOC12C1CC3CC2CC(O)(C3)C1` (single isomer, unassigned) [HO-AMPPD], the “Detection limit for alkaline phosphatase” value (alkaline phosphatase [2]; ENHANCER 1, 5 MIN) is reported as 3.0 femtomoles/liter, the “Detection limit for alkaline phosphatase” value (alkaline phosphatase [2]; ENHANCER 1, 20 MIN) is reported as 0.8 femtomoles/liter and the “Detection limit for alkaline phosphatase” value (alkaline phosphatase [2]; ENHANCER 2, 5 MIN) is reported as 1.0 femtomoles/liter. For the same compound, the “Detection limit for alkaline phosphatase” value (alkaline phosphatase [2]; ENHANCER 2, 20 MIN) was 0.3 femtomoles/liter, the chemiluminescent signal-to-noise level (alkaline phosphatase [3]; EMERALD 1 1 mg/ml, 5 min) was 307 and the chemiluminescent signal-to-noise level (alkaline phosphatase [3]; EMERALD 1 1 mg/ml, 20 min) was 386. It also gave a chemiluminescent signal-to-noise level (alkaline phosphatase [3]; EMERALD 2 1 mg/ml, 5 min) of 247, a chemiluminescent signal-to-noise level (alkaline phosphatase [3]; EMERALD 2 1 mg/ml, 20 min) of 299 and a chemiluminescent signal-to-noise level (alkaline phosphatase [3]; SAPPHIRE 1 1 mg/ml, 5 min) of 229. It also gave a chemiluminescent signal-to-noise level (alkaline phosphatase [3]; SAPPHIRE 1 1 mg/ml, 20 min) of 305, a chemiluminescent signal-to-noise level (alkaline phosphatase [3]; SAPPHIRE 2 1 mg/ml, 5 min) of 466 and a chemiluminescent signal-to-noise level (alkaline phosphatase [3]; SAPPHIRE 2 1 mg/ml, 20 min) of 643. The chemiluminescent signal-to-noise level (alkaline phosphatase [3]; [8]) was 55 and the chemiluminescent signal-to-noise level (alkaline phosphatase [3]; enhancer NONE, 20 min) was 73.
In the case of `COC1(c2cccc(OP(=O)(O)O)c2)OOC12C1CC3CC2CC(Br)(C3)C1` (centres unmarked) [Br-AMPPD, disodium 3-(4-methoxyspiro-[1,2-dioxetane-3,2'-(5'-bromo)tricyclo[3.3.1.1^3,7]decan]-4-yl) phenyl phosphate], the “Detection limit for alkaline phosphatase” value (alkaline phosphatase [2]; ENHANCER 1, 5 MIN) is reported as 2.6 femtomoles/liter, the “Detection limit for alkaline phosphatase” value (alkaline phosphatase [2]; ENHANCER 1, 20 MIN) is reported as 0.5 femtomoles/liter and the “Detection limit for alkaline phosphatase” value (alkaline phosphatase [2]; ENHANCER 2, 5 MIN) is reported as 0.4 femtomoles/liter. The “Detection limit for alkaline phosphatase” value (alkaline phosphatase [2]; ENHANCER 2, 20 MIN) was 0.3 femtomoles/liter, the “Detection limit (in picograms DNA) 5. min. exp.” value ([4]; BDMQ blocking step) was 0.313 picograms DNA and the “Detection limit (in picograms DNA) 1 min. exp.” value ([4]; BDMQ blocking step) was 0.313 picograms DNA. The “Detection limit (in picograms DNA) 5. min. exp.” value ([4]; no BDMQ blocking step) was 1.250 picograms DNA, the “Detection limit (in picograms DNA) 1 min. exp.” value ([4]; no BDMQ blocking step) was 2.500 picograms DNA and the “Alkaline phosphatase detection limit (at 2× background)” value (from here on “Alkaline phosphatase detection limit”) (alkaline phosphatase [5]; SAPPHIRE II, 5 MINUTE INCUBATION) was 0.0004 pM. The “Alkaline phosphatase detection limit” value (alkaline phosphatase [5]; SAPPHIRE II, 20 MINUTE INCUBATION) was 0.00039 pM, the “Alkaline phosphatase detection limit” value (alkaline phosphatase [5]; SAPPHIRE, 5 MINUTE INCUBATION) was 0.0027 pM and the “Alkaline phosphatase detection limit” value (alkaline phosphatase [5]; SAPPHIRE, 20 MINUTE INCUBATION) was 0.0004 pM. The chemiluminescent signal-to-noise level (alkaline phosphatase [3]; EMERALD 1 1 mg/ml, 5 min) was 149, the chemiluminescent signal-to-noise level (alkaline phosphatase [3]; EMERALD 1 1 mg/ml, 20 min) was 915 and the chemiluminescent signal-to-noise level (alkaline phosphatase [3]; EMERALD 2 1 mg/ml, 5 min) was 315. The chemiluminescent signal-to-noise level (alkaline phosphatase [3]; EMERALD 2 1 mg/ml, 20 min) was 503, the chemiluminescent signal-to-noise level (alkaline phosphatase [3]; SAPPHIRE 1 1 mg/ml, 5 min) was 383 and the chemiluminescent signal-to-noise level (alkaline phosphatase [3]; SAPPHIRE 1 1 mg/ml, 20 min) was 566. For the same compound, the chemiluminescent signal-to-noise level (alkaline phosphatase [3]; SAPPHIRE 2 1 mg/ml, 5 min) was 688, the chemiluminescent signal-to-noise level (alkaline phosphatase [3]; SAPPHIRE 2 1 mg/ml, 20 min) was 1019 and the chemiluminescent signal-to-noise level (alkaline phosphatase [3]; [8]) was 77. For the same compound, the chemiluminescent signal-to-noise level (alkaline phosphatase [3]; enhancer NONE, 20 min) was 92, the “Alkaline phosphatase detection limit” value (alkaline phosphatase [6]; SAPPHIRE II) was 0.00074 pM and the “Alkaline phosphatase detection limit” value (alkaline phosphatase [6]; SAPPHIRE) was 0.00021 pM. The “Total Decay Time” value [7] was 40 min, the “Decay Rate I” value ([7]; RLU's per minute) was 1.2 RLU's per minute and the “Decay Rate II” value ([7]; RLU's per minute) was 0.8 RLU's per minute.
`COC12CC3CC(C1)C1(OOC1(OC)c1cccc(OP(=O)(O)O)c1)C(C3)C2` (single isomer, unassigned) [CH3 O-AMPPD-A] was tested, and the “HALF-TIME TO PLATEAU” value (alkaline phosphatase [1]) was 0.86 min.
`COC1(c2cccc(OP(=O)(O)O)c2)OOC12C1CC3CC2CC(F)(C3)C1` (centres unmarked) [FSPD] was tested, and the “HALF-TIME TO PLATEAU” value (alkaline phosphatase [1]) was 0.74 min.
